Experimental data reported in patent US6716635B2, “Method for identifying regulators of protein-advanced glycation end product (protein-AGE) formation” (University of Kentucky Research Foundation, priority 2000, dated 2004).

How the values were obtained:
[1] = test system: histone H1 (carbonylation); test: histone H1 carbonylation by reducing sugars, and interference by compounds; format: biochemical; conditions: for amount of carbonylation / carbonylation of histone H1, in words: 1 mM sugar, pH 7.4, 7 days
Experimental: Both protein cross-linking and protein carbonylation are well established indicia of protein glycation. See Schacter, et al., Free Radic Biol Med. 17:429-437 (1994), incorporated by reference. In brief, following the assays described infra, formation of protein cross-linking was measured on 12% SDS-PAGE, followed by Coomassie and silver staining. Cross-linking was detectable with a high degree of sensitivity, when the reaction between ADP-ribose and histone H1 was carried out at pH 9.0. […] In FIG. 8, the abbreviations “M,” “D”, and “O” represent “monomer,” “dimer” and “oligomer,” respectively. Silver staining is the preferred way of determining the cross linking. Protein carbonlyation was determined via Western blotting. Specifically, AGE-BSA, which had been prepared by incubating BSA with 1.66M glucose, at pH 7.4 for 90 days at 37° C., was recognized after being derivatized with 2.4 dinitrophenlyhydrazine (“DNP”), when tested with antibodies specific for protein bound, DNP epitopes.
A series of experiments were carried out to compare different reducing sugars as glycation agents. In addition to ADP-ribose, ADP-glucose, D-ribose and D-glucose were tested. Briefly, histone H1 was combined with 1 mM of each sugar, and the mixture was incubated at pH 7.4. After 7 days of incubation, reaction aliquots were analyzed on 12% SDS-PACE gels, with silver staining. Results are presented in FIGS. 19A and B. In each of these, lane 1 is a control, with no sugar added, while lanes 2-5 show results using D-glucose, D-ribose, ADP-glucose, and ADP-ribose, respectively. […] The amount of carbonylation caused by ADP-ribose (0.82 mole/mole histone H1), and D-ribose (0.06 mole/mole histone H1) correlated with immunostaining.
In order to determine if the carbonylation of histone H1 by ADP-ribose involved an oxidative pathway, several compounds, known to interfere with glycoxidation of proteins by D-glucose were tested to determine if they interfered with this action by ADP-ribose. The compounds tested included 5 mM DTPA under argon, 5 mM aminoguanidine, 5 mM N^α acetyl L-cysteine, 5 mM mannitol, and 100 units/ml catalase.

[2] = test system: histone H1 (glycation by ADP-ribose); test: AGE-fluorescence screening of glycation inhibitors, histone H1 + ADP-ribose, 96 well microtiter plates; format: biochemical, calf; conditions: for AGE-fluorescence (day 5): 5 days incubation; for % inhibition: AGE-fluorescence day 5; for AGE-fluorescence (day 0): value (spread); for suppression of AGE-fluorescence, primary screen outcome: test compound 5 mM or limit of solubility, pH 7.4, 37° C.; for inhibition of AGE-fluorescence, in words: 1 to 10 mM, 5 days
Experimental: A 96-well, microtiter plate was used to carry out 48 reactions in duplicate. […] A second pair of wells contains the reactants and the known glycation inhibitor aminoguanidine, and functions as a positive control. Histone H1 is commercially available, and can be prepared following the procedures set out in Johns, et al., Biochem J. 92:55-59(1964), which is incorporated by reference herein.
The reaction system is 50 mM potassium phosphate buffer, at pH 7.4 to which 1.5 mg/ml histone H1 and 1.0 mM ADP-ribose were added. Reaction volume was 300 ul. AGE-fluorescence was measured over time, with incubation at 37° C., at 355 nm (ex) and 405 nm (em). Upon comparison to the control, a test compound was deemed potentially positive if AGE-fluorescence was suppressed.
The histone H1 (1.5 mg/ml) was combined with 1 mM ADP-ribose, in […] KH2PO4 buffer (pH 7.4, 37° C., 0.015% NaN3 added, to inhibit microbial growth). This reaction mixture was added, to 96 well microtiter plates. Test compounds were added to the reaction mixture, at concentrations ranging from 1 to 10 mM, in reaction volumes of 300 ul. Texts were run in duplicate.
Accumulated protein damage was determined by measuring AGE-fluorescence, at wavelengths (λex=370 nm; λ em=440 nm. The fluorescence is suppressed in the presence of compounds with inhibitory activity. Assays were read on a conventional microtiter plate, with a filter setting that approached the above conditions (λ ex: 355 nm, λ […]: 405 nm), which is in the range of the broad excitation/emission maxima of AGE compounds.
The fluorescence was measured at the beginning, and after 5 days of incubation.
The known glycation inhibitor aminoguanidine was used as a control.

Molecule | AGE-fluorescence (day 5) ([2]; compound 1 mM) | % inhibition ([2]; compound 1 mM) [%] | AGE-fluorescence (day 0) ([2]; compound 1 mM) | AGE-fluorescence (day 5) ([2]; compound 5 mM) | % inhibition ([2]; compound 5 mM) [%] | AGE-fluorescence (day 0) ([2]; compound 5 mM) | AGE-fluorescence (day 5) ([2]; compound 10 mM) | % inhibition ([2]; compound 10 mM) [%] | AGE-fluorescence (day 0) ([2]; compound 10 mM) | further results
catalase |  |  |  |  |  |  |  |  |  | interference with carbonylation of histone H1 by ADP-ribose ([1]; 100 units/ml): none of these interfered with the carbonylation
Nc1ncnc2c1ncn2[C@@H]1O[C@H](COP(=O)(O)OP(=O)(O)OC[C@H]2OC(O)[C@H](O)[C@@H]2O)[C@@H](O)[C@H]1O (stereo partly drawn) [ADP-ribose] |  |  |  |  |  |  |  |  |  | amount of carbonylation [1]: 0.82 mole/mole histone H1; carbonylation of histone H1, in words [1]: extensive carbonylation
N[C@@H](CCC(=O)N[C@@H](CS)C(=O)NCC(=O)O)C(=O)O [GSH, glutathione] | 19 (0.3) | 10 | 1.3 (0.0) | 17 (0.3) | 20 | 1.1 (0.3) | 14 (0.5) | 35 | 1.1 (0.0) | 
CC(=O)N[C@@H](CS)C(=O)O [NAC, N α-acetyl-L-cysteine, reference compound] | 11 (0.6) | 51 | 1.2 (0.2) | 10 (0.4) | 55 | 1.0 (0.1) | 9.4 (0.6) | 58 | 1.1 (0.1) | % inhibition ([2]; compound 10 mM, listed as N α-acetyl-L-cysteine): 61%; interference with carbonylation of histone H1 by ADP-ribose ([1]; compound 5 mM): none of these interfered with the carbonylation
COC(=O)[C@@H](N)CS [L-Cys-OMe, L-cysteine methylester] | 15 (0.1) | 31 | 1.2 (0.1) | 12 (0.8) | 46 | 1.3 (0.1) | 9.0 (0.2) | 61 | 1.2 (0.1) | suppression of AGE-fluorescence, primary screen outcome [2]: potential inhibitor
O=C[C@H](O)[C@@H](O)[C@H](O)[C@H](O)CO [D-glucose] |  |  |  |  |  |  |  |  |  | carbonylation of histone H1, in words [1]: Neither D-glucose nor ADP-glucose caused significant carbonylation
Nc1ncnc2c1ncn2[C@@H]1O[C@H](COP(=O)(O)OP(=O)(O)O[C@H]2O[C@H](CO)[C@@H](O)[C@H](O)[C@H]2O)[C@@H](O)[C@H]1O [ADP-glucose] |  |  |  |  |  |  |  |  |  | carbonylation of histone H1, in words [1]: Neither D-glucose nor ADP-glucose caused significant carbonylation
N[C@@H](CS)C(=O)NCC(=O)O [L-Cys-Gly, NH2-L-cys-gly-COOH] | 17 | 20 | 1.3 (0.3) | 26 (0.4) | 0 | 1.2 (0.2) | 40 (0.0) | 0 | 1.2 (0.1) | inhibition of AGE-fluorescence, in words [2]: increased AGE-fluorescence
NCCS [Cysteamine] | 10 (0.6) | 55 | 1.0 (0.1) | 9.0 (0.7) | 60 | 1.1 (0.1) | 6.0 (0.3) | 76 | 1.2 (0.2) | inhibition of AGE-fluorescence, in words [2]: somewhat better inhibition
N[C@@H](CS)C(=O)O [L-Cys, L-cysteine] | 14 (0.3) | 36 | 1.2 (0.1) | 11 (0.2) | 50 | 1.1 (0.1) | 9.0 (0.2) | 61 | 1.2 (0.1) | suppression of AGE-fluorescence, primary screen outcome [2]: potential inhibitor
O=C1CC(=O)NC(=S)N1 [2-Thiobarbituric acid] | 12 (0.4) | 45 | 1.1 (0.1) | 5.5 (0.4) | 78 | 1.2 (0.1) | 2.3 (0.0) | 95 | 1.3 (0.1) | 
O=C[C@H](O)[C@H](O)[C@H](O)CO [D-ribose] |  |  |  |  |  |  |  |  |  | amount of carbonylation [1]: 0.06 mole/mole histone H1; carbonylation of histone H1, in words [1]: a lesser amount
NCCC(=O)O [beta-alanine] |  |  |  |  |  |  |  |  |  | suppression of AGE-fluorescence, primary screen outcome [2]: true negatives
NC(CCS)C(=O)O (racemic) [D,L-Homocysteine] | 16 (1.1) | 26 | 1.3 (0.0) | 22 (0.1) | 0 | 1.2 (0.2) | 27 (1.7) | 0 | 1.1 (0.1) | inhibition of AGE-fluorescence, in words [2]: increased AGE-fluorescence
C[N+](C)(C)[C@@H](Cc1c[nH]c(=S)[nH]1)C(=O)[O-] [L-Ergothioneine] | 13 (0.0) | 40 | 1.0 (0.1) | 9.3 (0.2) | 59 | 1.2 (0.0) | 7.4 (0.1) | 69 | 1.2 (0.1) | inhibition of AGE-fluorescence, in words [2]: somewhat better inhibition
O=C(O)CN(CCN(CC(=O)O)CC(=O)O)CCN(CC(=O)O)CC(=O)O [DTPA] |  |  |  |  |  |  |  |  |  | interference with carbonylation of histone H1 by ADP-ribose ([1]; 5 mM under argon): none of these interfered with the carbonylation
OC[C@@H](O)[C@@H](O)[C@H](O)[C@H](O)CO [mannitol] |  |  |  |  |  |  |  |  |  | interference with carbonylation of histone H1 by ADP-ribose ([1]; compound 5 mM): none of these interfered with the carbonylation
